In patent US6142972A, “Method and apparatus for the delivery of elongate solid drug compositions” (Delab, priority 1998, dated 2000):

Assays:
[1] = Pharmacokinetics of SOMATULINE™ filament vs liquid solution in dogs (FIGS. 4A and 4B); assay type: in vivo; details: dog, blood
Procedure: FIGS. 4A and 4B are graphs showing the blood level in a dog of a somatostatin analog, SOMATULINE™ (BIM-23014C, Biomeasure, Milford Mass.) after implantation of a solid filament compared to a liquid solution of BIM-23014C.
The above protocol was performed by mixing 1.500 g of HEC and 8.500 g of water. 0.42250 g of the resulting gel was added to 0.06395 g of BIM 23014. The mixture was extruded through a […] (0.3 mm internal diameter needle), collected, and dried under vacuum for 24 hours. The dried filament contained 0.107 mg of BIM 23014/cm (weight percentage 50% HEC and 50% BIM 23014).
The filaments were tested for pharmacokinetics and compared to liquid infusions of the same dosage of SOMATULINE™ in dogs. The results are shown in the graphs in FIGS. 4A, 4B, and 5. […] However, the blood concentration decreased to less than 0.1 ng/ml within about 2 hours, to less than 0.001 within about 8 hours, and to about 0.0005 ng/ml in less than 12 hours. On the other hand, the blood concentration of SOMATULINE™ provided by the solid drug filament was at an almost constant level over 0.1 ng/ml for the first 10 hours, declined to about 0.002 ng/ml within 24 hours, and declined further to 0.0005 ng/ml by 72 hours.

[2] = pure insulin, depending on purity; cited from earlier work

`CC(C)[C@@H]1NC(=O)[C@H](CCCCN)NC(=O)[C@@H](Cc2c[nH]c3ccccc23)NC(=O)[C@H](Cc2ccc(O)cc2)NC(=O)[C@@H](NC(=O)[C@H](N)Cc2ccc3ccccc3c2)CSSC[C@@H](C(=O)N[C@H](C(N)=O)[C@@H](C)O)NC1=O` [SOMATULINE™] showed a concentration at 10 h ([1]; solid drug filament, first 10 hours, read-out: blood concentration of SOMATULINE™ (almost constant level)) of over 0.1 ng/mL, a concentration at 24 h ([1]; solid drug filament, within 24 hours) of about 0.002 ng/mL and a C0 ([1]; solution formulation, initial, read-out: blood concentration of SOMATULINE™, initial) of about 0.5 ng/mL. It also gave a concentration at 2 h ([1]; solution formulation, within about 2 hours) of under 0.1 ng/mL and a concentration at 8 h ([1]; solution formulation, within about 8 hours) of under 0.001 ng/mL.

For “recombinant human insulin: pure insulin, e.g., recombinant human insulin”, the “Insulin Units (IU) per mg” value [2] is given as 26 to 28 Insulin Units (IU) per mg.
